Reference: patent US6541468B1, “Indolocarbazole derivatives useful for the treatment of neurodegenerative diseases and cancer” (Bayer Corporation, priority 1998, dated 2003)
Read-outs that look alike come from different tables or passages of the source.

Tested on: tau hyperphosphorylation
Experiment: Okadaic acid induced AD-like tau hyperphosphorylation in SY5Y cells
Type: cell-based, human
Conditions: for IC50: Homo sapiens
Method: SKNSH-SY 5Y cells were plated on fibronectin-coated 6 well (30 mm^2) culture dishes (Biocoat®, Collaborative Biomedical Products, Inc.) and grown to confluence in 5 mL of 50% D-MEM/50% F-12 Nutrient Mixture (Ham) supplemented with 15% heat-inactivated bovine serum (JRH Bioscience), 0.1 mM non-essential amino acids solution, 2 mM glutamine and pen/strep/fungizone (GibcoBRL Life Technologies, Inc.). Cell culture medium was changed every 48 hours.
For drug testing, cells were routinely pretreated with inhibitors in 1 mL (30 mm2) for 60 min at concentrations of 30 nM, 100 nM, 300 nM, […]. Compound stocks were all at 10 mM in DMSO and dilutions were made in DMSO. Cells were then treated with 1 μM okadaic acid (ammonium salt; LC Laboratories, dissolved at 1 mM in DMSO) for 90 min. All experiments, including controls, contained a final concentration of between 0.5 and 1% DMSO.
Cells were detached from 30 mm^2 plates and suspended into 1 mL of ice-cold PBS by gentle trituration, transferred into microcentrifuge tubes and sedimented for 12 seconds at 14,000×g. The supernatant was removed and cells were lysed in 250 μl cold homogenization buffer (50 mM MES, pH 5.8, 5 mM sodium pyrophosphate, 50 mM p-nitrophenylphosphate, 1 μM okadaic acid, 2 mM Na-orthovandate, 1 mM EDTA, 1 mM EGTA, 1 mM DTT, 10^ glycerol, 10 μM leupeptin, 1 μM pepstatin, 1 mg/mL aprotinin, 10 μM chymostatin, 1 mM PMSF, and 1% TRITON® x100) and vortexed briefly to aid in lysis. Cell debris was removed by centrifugation at 14,000×g for 5 minutes at 4° C. and cell supernatants were analyzed by anti-ERK2 and anti-tau Western-blotting as described below.
[…] of total cell lysate was run on a 10% tris-glycine polyacrylamide gels (Novex, 1.5 mm×10 well) at 100 volts for 2.5 hors and Western-blotted on nitrocellulose (Novex) overnight at 23 volts or 1.5 hrs at 100V in transfer buffer [Towbin et al. Proc. Natl. Acad. Sci. USA 76, 4350-4354 (1979]) at 4° C. Blots were analyzed for ERK2 and phosphotyrosine immunoreactivity with anti-ERK1+2 (Z033; Zymed Laboratories, Inc.; 1:5,000) and anti-phosphotyrosine (4G10; Upstate Biotechnology Inc.; 1:1,000) mAbs. Blots were also analyzed for phosphorylation-sensitive Tau immuno-reactivity with mAb Tau-1 (Boehringer Mannheim; 1:5,000) and phosphorylation dependent mAb AT8 against FHF-tau (Biosource International; 1:200). Total Tau populations were detected by Tau-1 immunoblotting after treating blots for 16 hrs at 37° C. with 100 units/mL alkaline phosphatase (Gibco BRL) in 5 mL of 50 mM Tris-HCI (pH 8.5), 0.1 mM EDTA. All blots were developed using ECL (enhanced chemiluminescence) Western blotting protocol (Amersham Life Science) with horseradish peroxidase-linked sheep anti-mouse secondary antibody and analyzed on Kodak X-OMAT AR scientific imaging film. Films were scanned into Adobe Photoshop and imported into NIH Image 1.44, where densitometric analysis was performed. Changes in tau phosphorylation were assessed by normalizing densitometrically determined mAb Tau-1 immunoreactivities in cell extracts to Tau-1 reaction after dephosphorylation on the blot. Ratios of Tau-1 reactivity prior to and after dephosphorylation were expressed in % relative to the ratio obtained from control cells not treated with okadaic acid (100%). Proteins isolated form neonatal rat brain were used for comparison in some experiments.
Correlation of potencies of inhibition of PK40 activity in vitro, and of OA-induced ERK2 and tau phosphorylation in SY5Y cells. ERK2 phosphorylation was quantified as the ratio of low mobility/total ERK2, densitometrically determined from ERK2 Western-blots (e.g. of FIG. 1). Tau hyperphosphorylation was expressed as densitometrically measured Tau-1 immunoreactivity normalized to total Tau-1 reactivity after unmasking of the epitope by phosphatase treatment of the blots.
Prevention of tau hyperphosphorylation by the preferred compound CIII (FIG. 1). […]

[1] = SY5Y, 1 μM okadaic acid, means of triplicate determinations, read-out: Inhibition in SY5Y cells of tau hyperphos. IC50

In the case of `CNC(=O)[C@]1(O)CC2CC1n1c3ccccc3c3c4c(c5c6ccccc6n2c5c31)C(=O)NC4=O` (stereo partly drawn) [CII, 9,12-Methano-1H-diindolo[1,2,3-fg:3′,2′,1′-kl]pyrrolo[3,4-I][1,6] benzodiazocine-10-carboxamide, 2,3,9,10,11,12-hexahydro-10-hydroxy-N-methyl-1,3-dioxo-(9α,10β,12α)], the IC50 [1] is reported as 0.58 µM and the IC50 (SY5Y cells, okadaic acid, read-out: IC50 for prevention of tau hyperphosphorylation in SY5Y cells) is reported as 0.1 µM.
With `COC(=O)[C@@]1(O)C[C@H]2C[C@@H]1n1c3ccccc3c3c4c(c5c6ccccc6n2c5c31)C(=O)NC4=O` (relative stereo) [CIII, 9,12-Methano-1H-diindolo[1,2,3-fg:3′,2′,1′-kl]pyrrolo[3,4-I][1,6] benzodiazocine-10-carboxylic acid, 2,3,9,10,11,12-hexahydro-10-hydroxy-1,3-dioxomethyl ester, (9α,10β,12α)] the IC50 [1] was 3.6 µM, the “Effect on normal tau phosphorylation” value (SY5Y cells not treated by okadaic acid) was “apparently not affected” and the “Fully effective doses for prevention of tau hyperphosphorylation” value (SY5Y cells, 1 μM okadaic acid) was greater than 1 µM. For the same compound, the “Prevention of okadaic acid induced tau hyperphosphorylation (FIG. 1)” value (SY5Y cells, 1 μM okadaic acid, Tau-1 Western blot) was “prevents the tau hyperphosphorylation in a dose dependent manner”.
